Reference: PubChem BioAssay (NCI)
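GI50 = concentration required for 50% inhibition of growth. TGI denotes the concentration required for complete inhibition of growth.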

Experiments:
Experiment in all cases: NCI-60 cell line screen, 384-well format
786-0 renal = tested on: 786-0 renal
KM12 colon = tested on: KM12 colon
HCT-116 colon = tested on: HCT-116 colon
NCI-H522 lung = tested on: NCI-H522 lung
UACC-62 melanoma = tested on: UACC-62 melanoma
OVCAR-8 ovarian = tested on: OVCAR-8 ovarian
U251 glioblastoma = tested on: U251 glioblastoma
HCC-2998 colon = tested on: HCC-2998 colon
MDA-MB-231 breast = tested on: MDA-MB-231 breast
OVCAR-3 ovarian = tested on: OVCAR-3 ovarian
RPMI-8226 leukemia = tested on: RPMI-8226 leukemia
TK-10 renal = tested on: TK-10 renal
HOP-92 NSCLC = tested on: HOP-92 NSCLC

Question: `N#Cc1cnc(Nc2cc(NC[C@H]3CNCCO3)c(C(F)(F)F)cn2)cn1` was tested. Which GI50 (786-0 renal) did it give?
Answer: Its GI50 is 1.59 µM.

Question: What about the TGI (786-0 renal) of the same compound?
Answer: The TGI was 15.2 µM.

Question: What about the GI50 (KM12 colon) of the same compound?
Answer: Its GI50 is 1.67 µM.

Question: And the TGI (KM12 colon)?
Answer: Its TGI is 18 µM.

Question: And the GI50 (HCT-116 colon)?
Answer: Its GI50 is 17.5 µM.

Question: What about the TGI (HCT-116 colon) of the same compound?
Answer: The TGI was 47.5 µM.

Question: What about the GI50 (NCI-H522 lung) of the same compound?
Answer: Its GI50 is 13.6 µM.

Question: And the TGI (NCI-H522 lung)?
Answer: Its TGI is 26.9 µM.

Question: And the GI50 (UACC-62 melanoma)?
Answer: The GI50 was 7.66 µM.

Question: And the TGI (UACC-62 melanoma)?
Answer: The TGI was 21 µM.

Question: And the GI50 (OVCAR-8 ovarian)?
Answer: The GI50 was 1.66 µM.

Question: What about the TGI (OVCAR-8 ovarian) of the same compound?
Answer: Its TGI is 22.2 µM.

Question: And the GI50 (U251 glioblastoma)?
Answer: The GI50 was 17.4 µM.

Question: And the TGI (U251 glioblastoma)?
Answer: The TGI was 39.7 µM.

Question: What about the GI50 (HCC-2998 colon) of the same compound?
Answer: Its GI50 is 0.402 µM.

Question: What about the TGI (HCC-2998 colon) of the same compound?
Answer: The TGI was 3.09 µM.

Question: And the GI50 (MDA-MB-231 breast)?
Answer: Its GI50 is 16.8 µM.

Question: What about the TGI (MDA-MB-231 breast) of the same compound?
Answer: The TGI was 42.3 µM.

Question: What about the GI50 (OVCAR-3 ovarian) of the same compound?
Answer: The GI50 was 9.42 µM.

Question: And the TGI (OVCAR-3 ovarian)?
Answer: The TGI was 25.4 µM.

Question: And the GI50 (RPMI-8226 leukemia)?
Answer: The GI50 was 1.21 µM.

Question: And the TGI (RPMI-8226 leukemia)?
Answer: Its TGI is 5.28 µM.

Question: And the GI50 (TK-10 renal)?
Answer: Its GI50 is 1.14 µM.

Question: What about the TGI (TK-10 renal) of the same compound?
Answer: The TGI was 10.2 µM.

Question: And the GI50 (HOP-92 NSCLC)?
Answer: The GI50 was 0.504 µM.

Question: What about the TGI (HOP-92 NSCLC) of the same compound?
Answer: Its TGI is 9.53 µM.
